Laboratory results reported in US20230118467A1, “COSMETIC OR PHARMACEUTICAL USE OF AVENANTHRAMIDE L” (priority 2020, published 2023).
Where “and” joins values, the source holds several entries; their conditions need not be identical. Equal values may be shown once. Read-outs that look alike come from different tables or passages of the source.

How the values were obtained:
tachykinin NK1 receptor = biological target: T1, tachykinin NK1 receptor (Homo sapiens, UniProt P25103); experiment: NK1 receptor inhibition study, radioligand binding assay ([3H] Substance P); conditions: for inhibition at 0.1 ppm / inhibition at 1 ppm / inhibition at 10 ppm / inhibition at 100 ppm / inhibition at 125 ppm: read-out: Percent inhibition of specific binding to the tachykinin NK1 receptor; for inhibition at 125 ppm: test concentration 125 ppm (Example 7)
T1 construct: expressed in transfected cells; host or cells: CHO cells
Protocol: The inhibition activity of avenanthramide L versus dihydroavenanthramide D and the structurally related avenanthramides A and D was evaluated in a radioligand binding assay.
The method employed in this study was adapted from the scientific literature so as to maximise reliability and reproducibility. Reference compound L-703,606 was run as an integral part of each experiment, to ensure the validity of the results obtained. The assay was performed under the conditions described in the following respective method.
Source: Human recombinant CHO cells
Incubation time/temperature: 90 minutes at 4° C. Incubation buffer: 20 mM HEPES, pH 7.4, • 1 mM MnCl2 • 0.1% BSA
Ligand: 0.80 nM [3H] Substance P
Non-specific ligand: 10.0 μM L-703,606 oxalate salt (CAS 144425-84-3) Specific binding: 90% Significance criteria: ≥50% of max. stimulation or inhibition Bmax: 1.70 pmol/mg protein
In another experiment, the inhibitory activity of a combination of avenanthramide L and another avenanthramide was evaluated in comparison to both substances alone in the radioligand binding assay as described in Example 1 to investigate a potential synergism.

[1] = Temperature stability at 40° C. of avenanthramide mixture in solution; assay type: physicochemical; conditions: for Content after 2 weeks at 40° C. / Content after 4 weeks at 40° C. / Content before treatment: Avn in mixture DragoCalm (glycerin/water); for Content before treatment: HPLC; for Degradation in %: Avn in mixture DragoCalm
From the text: with p=sample 1 and v=sample 2

[2] = Oxidative stability (Oxipress) of avenanthramides in solution; conditions: for Content after treatment / Degradation in %: 5 bars of oxygen at 70° C. for 24 hours; for Content before treatment: HPLC; for ΔE (colour difference, CIELAB): before vs after 5 bars of oxygen at 70° C. for 24 hours
[3] = 24 h
[4] = test system: Primary human dermal fibroblasts; experiment: Cellular antioxidant activity (DCF-DA assay); assay type: cell-based; conditions: 24 h incubation, prooxidant challenge 1 mM 1 h; for inhibition at 500 µM: Homo sapiens, Fibroblast, read-out: Inhibition of oxidation
Protocol: The DCF-DA assay is a fluorometric microplate assay for the detection of oxidative stress by detecting oxidation of 2′,7′-dichlorofluorescein-diacetate (DCF-DA) into the highly fluorescent compound 2′,7′-dichlorofluorescein (DCF) due to the presence of reactive oxygen species (ROS). The DCF-DA assay allows the cellular antioxidant activity of a substance to be determined.
Primary human dermal fibroblasts were seeded in a 96-well microtiter plate at a concentration of 0.5×10^4 cells/well. Cultivation took place at 37° C. and 5% CO2 in DMEM, enriched with 10% foetal calf serum. Confluence was supposed to be around 70% at the time, the incubation with the test substances began. The test substances were applied to the cells at a concentration of 500 μM. After 24 h of incubation, 100 μL H2DCF-DA-solution (10 μM) incl. DAPI (1:1000) was added to all samples (excluded the background-control) and incubated for one hour to deesterify the H2DCF-DA by cellular esterases. The resulting H2DCF was thereby trapped inside the cell. After the incubation, the cells were washed and the prooxidant challenge was set (1 mM, 1 h). The resulting fluorescence was read at λex 504 nm; λem 524 nm. An increased level of ROS (reactive oxygen species) led to an increased amount of fluorescence.
The inhibition of the oxidation in the presence of test substances was calculated according to the following equation: […]
The abbreviations have the following meanings: • RFU test substance: Relative fluorescence units of the wells with test substance and with cells • RFU control: Relative fluorescence units of the wells without test substance, but with cells • RFU without cells: Relative fluorescence units of the wells without test substance and without cells (blank)

CD44 = experiment: Gene expression in neonatal human epidermal keratinocytes (real-time PCR): CD44; assay type: cell-based; conditions: 100 μM, 24 hours, nHEK, RQ ≥2.0 relevant
Protocol: (§1) Neonatal human epidermal keratinocytes (nHEK) were cultivated in an EpiLife® medium (Gibco) including an HKGS kit (Gibco) with 5% C02 at 37° C. in accordance with the supplier's instructions.
(§2) The cells were treated for 24 hours, with the test compounds dissolved in DMSO and DMSO alone as the vehicle control. Genomic target expression levels in treated cells were measured using a quantitative Real-Time PCR comparison to vehicle control treatment.
(§3) RNA was isolated using Qiagen's RNeasy® Mini Kit. The total RNA concentrations were measured using Eppendorf's pCuvetteG 1.0 and BioPhotometer, by measuring the absorption at 260 nm. Purity control values such as E260/280 and E260/230 were calculated simultaneously. Reverse transcription was performed using the high-capacity RNA-to-cDNA kit of Applied Biosystems, in accordance with the supplier's instructions. Samples were treated in Biometra's PCR Thermocycler.
(§4) For fast real-time PCR, the cDNA was diluted with RNase-free water, and the TaqMan™ Fast Universal PCR Master Mix of Applied Biosystems was used.
(§5) Quantitative real-time PCR was performed using the StepOnePlus fast real-time PCR instrument by Applied Biosystems. Analysis was conducted using the StepOne software and 2^−ΔΔct method (normalised to endogenous control […] expression).
(§6) For upregulations, RQ values ≥2.0 are considered to be relevant. […]

BLVRB = experiment: Gene expression in neonatal human epidermal keratinocytes (real-time PCR): BLVRB; assay type: cell-based; conditions: 100 μM, 24 hours, nHEK, RQ ≥2.0 relevant
Protocol: as §1, §2, §3, §4, §5, §6

[5] = Radical-scavenging activity (ABTS assay); assay type: biochemical; conditions: absorption at 734 nm
From the text: The ABTS assay measures the relative ability of antioxidants to scavenge the ABTS radical generated in aqueous phase, as compared with a Trolox (water-soluble vitamin E analogue) standard. The green-blue stable radical cationic chromophore 2,2′-azino-bis(3-ethylbenzothiazoline-6-sulphonate) (ABTS^•+) is generated by reaction with the ABTS salt using a strong oxidising agent (for example potassium permanganate or potassium persulphate) and has absorption maxima at 414, 645, 734 and 815 nm. The reduction of the blue-green ABTS radical by hydrogen-donating antioxidants is measured by the suppression of its characteristic long wave absorption spectrum.
With the aid of the ABTS assay, the antioxidative capacity of Avn L and Avn A were evaluated and compared.
2,2′-azino-bis-(3-ethylbenzothiazoline-6-sulphonic acid) (ABTS) was transformed into the blue-green radical cation ABTS^•+ using potassium persulphate. Through the addition of [6]-paradol and alpha-tocopherol, the radical cations were reduced and discoloration was observed, as determined photometrically by absorption at 734 nm. Inhibition of radical formation in the test substance is calculated by the following formula: […]
where • Atest substance is the absorption in the wells with the test substance including [6]-paradol and alpha-tocopherol • Acontrol is the absorption in the wells with no test substance.
Values for IC50 (the concentration at which radical formation is inhibited by 50%) were calculated from the inhibition of radical formation [%] in a series of dilutions of tested samples.

HPRT1 (housekeeping) = experiment: Gene expression in neonatal human epidermal keratinocytes (real-time PCR): HPRT1; assay type: cell-based; conditions: 100 μM, 24 hours
Protocol: as §1, §2, §3, §4, §5, §6

HSP90AA1 = experiment: Gene expression in neonatal human epidermal keratinocytes (real-time PCR): HSP90AA1; assay type: cell-based; conditions: 100 μM, 24 hours, nHEK, vs DMSO vehicle, RQ ≥2.0 relevant
Protocol: as §1, §2, §3, §4, §5
(§7) For upregulations, RQ values ≥2.0 are considered to be relevant.

HSP90AB1 = experiment: Gene expression in neonatal human epidermal keratinocytes (real-time PCR): HSP90AB1; assay type: cell-based; conditions: 100 μM, 24 hours, nHEK, vs DMSO vehicle, RQ ≥2.0 relevant
Protocol: as §1, §2, §3, §4, §5, §7

CRYAB = experiment: Gene expression in neonatal human epidermal keratinocytes (real-time PCR): CRYAB; assay type: cell-based; conditions: 100 μM, 24 hours, nHEK, vs DMSO vehicle, RQ ≥2.0 relevant
Protocol: as §1, §2, §3, §4, §5, §7

HSPB2 (=HSP27) = experiment: Gene expression in neonatal human epidermal keratinocytes (real-time PCR): HSPB2; assay type: cell-based; conditions: 100 μM, 24 hours, nHEK, vs DMSO vehicle; RQ ≥2.0 relevant
Protocol: as §1, §2, §3, §4, §5, §7

[6] = Avn in mixture DragoCalm SP (glycerin/water)
[7] = single Avn in aqueous ethanolic solution (0.01 wt %)

T1 sequence (P25103 whole entry): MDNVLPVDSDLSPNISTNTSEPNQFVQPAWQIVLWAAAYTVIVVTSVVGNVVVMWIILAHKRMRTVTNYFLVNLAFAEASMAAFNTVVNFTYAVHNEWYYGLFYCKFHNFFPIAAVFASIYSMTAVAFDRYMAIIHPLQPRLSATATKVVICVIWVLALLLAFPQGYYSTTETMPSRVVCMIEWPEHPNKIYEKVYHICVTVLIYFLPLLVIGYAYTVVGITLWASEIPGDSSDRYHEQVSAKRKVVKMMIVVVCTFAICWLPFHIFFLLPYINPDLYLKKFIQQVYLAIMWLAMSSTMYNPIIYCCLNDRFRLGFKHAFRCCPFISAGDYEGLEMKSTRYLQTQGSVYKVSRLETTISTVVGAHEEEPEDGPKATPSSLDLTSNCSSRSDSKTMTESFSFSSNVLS

| Percent inhibition of specific binding to the tachykinin NK1 receptor (tachykinin NK1 receptor; test concentration 0.1 ppm) | Percent inhibition of specific binding to the tachykinin NK1 receptor (tachykinin NK1 receptor; test concentration 1 ppm) | Percent inhibition of specific binding to the tachykinin NK1 receptor (tachykinin NK1 receptor; test concentration 10 ppm) | Percent inhibition of specific binding to the tachykinin NK1 receptor (tachykinin NK1 receptor; test concentration 100 ppm) | Content after 2 weeks at 40° C. [1] | Content after 4 weeks at 40° C. [1] | Content before treatment [1] | Degradation in % ([1]; after 4 weeks at 40° C.) | Content after treatment [2, 6] | Degradation in % [2, 6] | Content before treatment [2, 6] | Content after treatment [2, 7] | Degradation in % [2, 7] | Content before treatment [2, 7] | ΔE (colour difference, CIELAB) [2, 7] | inhibition at 0.1 ppm (tachykinin NK1 receptor; test concentration 0.1 ppm) | inhibition at 1 ppm (tachykinin NK1 receptor; test concentration 1 ppm) | inhibition at 10 ppm (tachykinin NK1 receptor; test concentration 10 ppm) | inhibition at 100 ppm (tachykinin NK1 receptor; test concentration 100 ppm) | inhibition at 125 ppm (tachykinin NK1 receptor) | SMILES | also measured |
| --- | --- | --- | --- | --- | --- | --- | --- | --- | --- | --- | --- | --- | --- | --- | --- | --- | --- | --- | --- | --- | --- |
| 9% | 15% | 27% | 94% | 16 ppm | 10 ppm | 20 ppm | 50% | <1 ppm | 100% | 10 ppm | 89 ppm | 15% | 105 ppm | 2.3 |  |  |  |  |  | O=C(C=Cc1ccc(O)c(O)c1)Nc1ccc(O)cc1C(=O)O [Avn C, N-(3′-4′-dihydroxycinnamoyl)-5-hydroxyanthranilic acid] | Degradation in % ([1]; after 2 weeks at 40° C.): 20%; Degradation in % ([2]; Avn in mixture DragoCalm SP (glycerin/water), listed as Avenanthramide C): completely degraded |
| 8% | 6% | 8% | 19% |  |  |  |  |  |  |  |  |  |  |  |  |  |  |  |  | O=C(CCc1ccc(O)cc1)Nc1ccccc1C(=O)O [Dihydroavenanthramide D, dihydroavenanthramide D] |  |
|  |  |  |  | 11 ppm | 10 ppm | 11 ppm | 9% | 7 ppm |  | 8 ppm | 100 ppm |  | 103 ppm | 0.6 | 9% | 15% | 20% | 42% | 37% | O=C(/C=C/C=C/c1ccc(O)cc1)Nc1ccc(O)cc1C(=O)O [Avn L, 5-hydroxy-2-[(2E,4E)-5-(4-hydroxyphenyl)penta-2,4-dienamido]benzoic acid] | Degradation in % [3]: 13%; Degradation in % ([3]; 0.01 wt %): 3%; Inhibition of oxidation ([4]; 500 μM): higher antioxidant activity than avenanthramide A; inhibition at 500 µM [4]: 49 ± 7%; RQ value, CD44 (CD44; listed as avenanthramide L): upregulates; RQ value, BLVRB (BLVRB; listed as avenanthramide L): upregulates; Mean antioxidant activity (inhibition of radical formation) ([5]; 5 μM): 40 ± 4%; Mean antioxidant activity (inhibition of radical formation) ([5]; 5 μM, listed as Avenanthramide L): at least 40%; Mean antioxidant activity (inhibition of radical formation) ([5]; 10 μM): 74 ± 4%; Mean antioxidant activity (inhibition of radical formation) ([5]; 10 μM, listed as avenanthramide L): at least 70%; RQ value, HPRT1 (housekeeping) (HPRT1 (housekeeping); nHEK (Example 4 gene array)): 1.0; RQ value, HPRT1 (housekeeping) (HPRT1 (housekeeping); nHEK, vs DMSO vehicle (Example 3)): 1.0; RQ value, HSP90AA1 (HSP90AA1): 0.9; RQ value, HSP90AA1 (HSP90AA1; listed as avenanthramide L): no effect; RQ value, HSP90AB1 (HSP90AB1): 0.4 and 0.5; RQ value, HSP90AB1 (HSP90AB1; listed as avenanthramide L): no effect; RQ value, CRYAB (CRYAB): 2.1 and 1.6; RQ value, CRYAB (CRYAB; listed as avenanthramide L): upregulates |
|  |  |  |  | 50 ppm | 50 ppm | 50 ppm |  | 34 ppm | 3% | 35 ppm | 104 ppm | 0% | 104 ppm | 0.2 | 3% | 8% | 14% | 21% | 9% | O=C(C=Cc1ccc(O)cc1)Nc1ccc(O)cc1C(=O)O [Avn A, N-(4′-hydroxycinnamoyl)-5-hydroxyanthranilic acid] | inhibition at 500 µM [4]: 14 ± 6%; RQ value, CD44 (CD44): no effect; RQ value, BLVRB (BLVRB): no effect; Mean antioxidant activity (inhibition of radical formation) ([5]; 5 μM): 40 ± 4%; Mean antioxidant activity (inhibition of radical formation) ([5]; 10 μM): 76 ± 4%; RQ value, HSPB2 (=HSP27) (HSPB2 (=HSP27)): 1.9; Degradation in % ([2]; Avn in mixture DragoCalm SP (glycerin/water), listed as Avenanthramide A): stable |
